Test results from US20230295118A1 (EnhancedBio Inc., priority 2022, published 2023).

How the values were obtained:
Assay type in all cases: cell-based
[1] = system: mantle cell lymphoma cell (Mino or JeKo-1); assay: Antiproliferative effect, MTS cell viability assay; details: 72 h, mantle cell lymphoma cell (Mino or JeKo-1), MTS assay, read-out: IC50 (anti-proliferation)
Method in brief: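 MTS read-out (formazan absorbance at 490 nm) after 72 h exposure of Mino cells to 0–1 μM compound (0.0001, 0.001, 0.01, 0.1, 1 μM). Palbociclib and abemaciclib served as positive controls.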

[2] = molecular target: T1, CDK4 (Homo sapiens, UniProt P11802); assay: CDK4 degradation (DC50, Dmax)
T1 construct: endogenous in cells

[3] = molecular target: T2, CDK6 (Homo sapiens, UniProt Q00534); assay: CDK6 degradation (DC50, Dmax)
T2 construct: endogenous in cells
T2 sequence (Q00534 whole entry): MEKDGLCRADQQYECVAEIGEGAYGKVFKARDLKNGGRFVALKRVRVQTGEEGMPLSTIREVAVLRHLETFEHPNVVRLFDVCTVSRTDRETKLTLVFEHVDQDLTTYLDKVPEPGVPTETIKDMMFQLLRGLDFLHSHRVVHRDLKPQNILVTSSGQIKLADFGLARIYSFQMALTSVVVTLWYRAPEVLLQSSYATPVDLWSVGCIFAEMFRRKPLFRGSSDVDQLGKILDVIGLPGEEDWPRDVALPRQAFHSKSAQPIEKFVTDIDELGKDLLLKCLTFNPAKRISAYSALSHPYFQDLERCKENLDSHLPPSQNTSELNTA

T1 sequence (P11802 whole entry): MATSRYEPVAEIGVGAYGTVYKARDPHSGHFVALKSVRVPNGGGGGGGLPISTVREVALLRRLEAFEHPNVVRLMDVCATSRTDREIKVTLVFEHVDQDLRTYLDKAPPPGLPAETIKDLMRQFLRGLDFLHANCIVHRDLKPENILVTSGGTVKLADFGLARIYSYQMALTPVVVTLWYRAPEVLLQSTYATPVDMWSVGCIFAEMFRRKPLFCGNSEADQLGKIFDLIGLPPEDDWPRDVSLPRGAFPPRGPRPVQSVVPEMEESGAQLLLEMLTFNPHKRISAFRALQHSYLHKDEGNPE

Compound | IC50 [1] | DC50 [2] | Dmax [2] | DC50 [3] | Dmax [3]
CC(=O)c1c(C)c2cnc(Nc3ccc(N4CCN(CC5CCN(C(=O)N6CCC(C7CCN(c8ccc9c(c8)C(=O)N(C8CCC(=O)NC8=O)C9=O)CC7)CC6)CC5)CC4)cn3)nc2n(C2CCCC2)c1=O (stereo not shown) [Compound 82, 5-(1′-(4-((4-(6-((6-acetyl-8-cyclopentyl-5-methyl-7-oxo-7,8-dihydropyrido[2,3-d]pyrimidin-2-yl)amino)pyridin-3-yl)piperazin-1-yl)methyl)piperidine-1-carbonyl)-[4,4′-bipiperidin]-1-yl)-2-(2,6-dioxopiperidin-3-yl) isoindoline-1,3-dione] | > 0.2 µM | > 0.2 µM | > 50% | > 0.2 µM | > 50%
CC(=O)c1c(C)c2cnc(Nc3ccc(N4CCN(CC5CCN(C(=O)N6CCC(CCN7CCN(c8ccc9c(c8)C(=O)N(C8CCC(=O)NC8=O)C9=O)CC7)CC6)CC5)CC4)cn3)nc2n(C2CCCC2)c1=O (stereo not shown) [Compound 83, 5-(4-(2-(1-(4-((4-(6-((6-acetyl-8-cyclopentyl-5-methyl-7-oxo-7,8-dihydropyrido[2,3-d]pyrimidin-2-yl)amino)pyridin-3-yl)piperazin-1-yl)methyl)piperidine-1-carbonyl)piperidin-4-yl)ethyl)piperazin-1-yl)-2-(2,6-dioxopiperidin-3-yl) isoindoline-1,3-dione] | > 0.2 µM | > 0.2 µM | > 50% | > 0.2 µM | > 50%
CC(=O)c1c(C)c2cnc(Nc3ccc(N4CCN(CC5CCN(C(=O)N6CCC(CN7CCN(c8ccc9c(c8)C(=O)N(C8CCC(=O)NC8=O)C9=O)CC7)CC6)CC5)CC4)cn3)nc2n(C2CCCC2)c1=O (stereo not shown) [Compound 84, 5-(4-((1-(4-((4-(6-((6-acetyl-8-cyclopentyl-5-methyl-7-oxo-7,8-dihydropyrido[2,3-d]pyrimidin-2-yl)amino)pyridin-3-yl)piperazin-1-yl)methyl)piperidine-1-carbonyl)piperidin-4-yl)methyl)piperazin-1-yl)-2-(2,6-dioxopiperidin-3-yl) isoindoline-1,3-dione] | < 0.05 µM | 0.05 to 0.2 µM | > 80% | 0.05 to 0.2 µM | > 80%
CC(=O)c1c(C)c2cnc(Nc3ccc(N4CCN(C5CCN(C(=O)N6CCC(C7CCN(c8ccc9c(c8)C(=O)N(C8CCC(=O)NC8=O)C9=O)CC7)CC6)CC5)CC4)cn3)nc2n(C2CCCC2)c1=O (stereo not shown) [Compound 85, 5-(1′-(4-(4-(6-((6-acetyl-8-cyclopentyl-5-methyl-7-oxo-7,8-dihydropyrido[2,3-d]pyrimidin-2-yl)amino)pyridin-3-yl)piperazin-1-yl)piperidine-1-carbonyl)-[4,4′-bipiperidin]-1-yl)-2-(2,6-dioxopiperidin-3-yl) isoindoline-1,3-dione] | > 0.2 µM | > 0.2 µM | > 60% | > 0.2 µM | > 60%
CC(=O)c1c(C)c2cnc(Nc3ccc(N4CCN(C5CCN(C(=O)N6CCC(CN7CCN(c8ccc9c(c8)C(=O)N(C8CCC(=O)NC8=O)C9=O)CC7)CC6)CC5)CC4)cn3)nc2n(C2CCCC2)c1=O (stereo not shown) [Compound 86, 5-(4-((1-(4-(4-(6-((6-acetyl-8-cyclopentyl-5-methyl-7-oxo-7,8-dihydropyrido[2,3-d]pyrimidin-2-yl)amino)pyridin-3-yl)piperazin-1-yl)piperidine-1-carbonyl)piperidin-4-yl)methyl)piperazin-1-yl)-2-(2,6-dioxopiperidin-3-yl) isoindoline-1,3-dione] | 0.05 to 0.2 µM | 0.05 to 0.2 µM | > 60% | 0.05 to 0.2 µM | > 60%
